Test results as given in patent US20250136572A1, “PARA ACYL SUBSTITUTED DIAZACYCLOHEXENE DERIVATIVES” (Renovel Innovations, Inc., priority 2021, published 2025).

Assays:
[1] = Oral glucose tolerance test in C57BL/6 mice on high fat diet; format: in vivo; parameters: concentration or dose not given beside the values; details: for reduction in blood glucose at the peak oral glucose tolerance test of 30 minutes: compared with the control high fat diet group
[2] = Body weight in C57BL/6 mice on high fat diet; format: in vivo, male C57BL/6 mice; details: for decrease in body weight: compared to the high fat diet control group
[3] = Triglycerides in high fructose fed hamsters; format: in vivo; details: compared with the high fructose fed group
TNF-α = TNF-α in LPS-treated mice; format: in vivo; details: from the LPS group
[4] = Fasting blood glucose in mice on high fat diet; format: in vivo; details: compared with the control high fat diet group
Blood pressure in rats = format: in vivo; details: compared to the vehicle group

## CCOC(=O)C1=C(C)NC(=O)NC1c1ccc(OC(=O)/C=C/c2ccccc2)cc1 (stereo not shown) [Compound 1, 6-Methyl-2-oxo-4-[4-(3-phenyl-acryloyloxy)-phenyl]-1,2,3,4-tetrahydro-pyrimidine-5-carboxylic acid ethyl ester]
[1]
  reduction in blood glucose at the peak oral glucose tolerance test of 30 minutes: 23%
[2]; FIG. 1B, compared with the control high fat diet group
  decrease in percent change in body weight: 15%
[3]
  decrease in triglycerides: 31%
TNF-α
  decrease of TNF-α: 59%
[4]
  decrease in fasting blood glucose: 26%
Blood pressure in rats
  decrease in diastolic blood pressure: 8%
  decrease in systolic blood pressure: 4%

## CCOC(=O)C1=C(C)NC(=O)NC1c1ccc(OC(=O)/C=C/c2ccccc2)c(OC)c1 (stereo not shown) [Compound 2, 4-[3-Methoxy-4-(3-phenyl-acryloyloxy)-phenyl]-6-Methyl-2-oxo-1,2,3,4-tetrahydro-pyrimidine-5-carboxylic acid ethyl ester]
[1]
  reduction in blood glucose at the peak oral glucose tolerance test of 30 minutes: 8%
[2]; FIG. 6A, C57BL/6 mice
  decrease in body weight: 5%
[2]; FIG. 6B, significant (P<0.0001)
  decrease in body weight: 15%

## CCOC(=O)C1=C(C)NC(=O)NC1c1ccc(OC(=O)C(C)C)c(OC)c1 (stereo not shown) [Compound 3, 4-(4-Isobutyryloxy-3-methoxy-phenyl)-6-methyl-2-oxo-1,2,3,4-tetrahydro-pyrimidine-5-carboxylic acid ethyl ester]
[1]
  reduction in blood glucose at the peak oral glucose tolerance test of 30 minutes: 6%

## CCOC(=O)C1=C(C)NC(=S)NC1c1ccc(OC(=O)C(C)C)c(OC)c1 (stereo not shown) [Compound 4, 4-(4-Isobutyryloxy-3-methoxy-phenyl)-6-methyl-2-thioxo-1,2,3,4-tetrahydro-pyrimidine-5-carboxylic acid ethyl ester]
[1]
  reduction in blood glucose at the peak oral glucose tolerance test of 30 minutes: 33%
[1]; 120 minutes after glucose administration
  reduction in blood glucose at 120 minutes after glucose administration: 26%
